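Each compound was tested at five concentrations against cells in 96-well plates for 48 hours. GI50: concentration for 50% inhibition of growth.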 Active and inactive are the calls of the source. Rule as the data show it: active = GI50 up to about 1.1 µM and inactive = higher.
What was measured:
Test in all cases: NCI-60 cell line screen, 48 h
PC-3 = tested on: PC-3
SNB-19 = tested on: SNB-19
NCI-H23 = tested on: NCI-H23
MCF7 = tested on: MCF7
786-0 = tested on: 786-0
HT-29 = tested on: HT-29
SF-268 = tested on: SF-268
SF-295 = tested on: SF-295
MOLT-4 = tested on: MOLT-4
LOX IMVI = tested on: LOX IMVI
HCC 2998 = tested on: HCC 2998
SW-620 = tested on: SW-620
SK-MEL-28 = tested on: SK-MEL-28
TK-10 = tested on: TK-10
OVCAR-4 = tested on: OVCAR-4
CCRF-CEM = tested on: CCRF-CEM
UACC-62 = tested on: UACC-62
Malme-3M = tested on: Malme-3M
SNB-75 = tested on: SNB-75
SK-MEL-2 = tested on: SK-MEL-2

Row | Structure (SMILES) | GI50 (PC-3) | GI50 (SNB-19) | GI50 (NCI-H23) | GI50 (MCF7) | GI50 (786-0) | GI50 (HT-29) | GI50 (SF-268) | GI50 (SF-295) | GI50 (MOLT-4) | GI50 (LOX IMVI) | GI50 (HCC 2998) | GI50 (SW-620) | GI50 (SK-MEL-28) | GI50 (TK-10) | GI50 (OVCAR-4) | GI50 (CCRF-CEM) | GI50 (UACC-62) | GI50 (Malme-3M) | GI50 (SNB-75) | GI50 (SK-MEL-2)
1 | O=[N+]([O-])c1ccc(/C=C/c2cc(-c3ccccc3)nc3ccc4ccccc4c23)cc1 | > 100 µM (inactive) | > 100 µM (inactive) | > 100 µM (inactive) | 57 µM (inactive) | > 100 µM (inactive) | > 100 µM (inactive) | > 100 µM (inactive) | > 100 µM (inactive) | > 100 µM (inactive) | > 100 µM (inactive) | > 100 µM (inactive) | > 100 µM (inactive) | > 100 µM (inactive) | > 100 µM (inactive) | > 100 µM (inactive) | > 100 µM (inactive) | > 100 µM (inactive) | > 100 µM (inactive) | 16.9 µM (inactive) | –
2 | N[C@H]1CCN(c2c(F)cc3c(=O)c(C(=O)O)cn4c3c2Oc2cc3c(ccc5ccccc53)cc2-4)C1 | 2.17 µM (inactive) | 5.81 µM (inactive) | 4.83 µM (inactive) | 2.63 µM (inactive) | 2.88 µM (inactive) | 3.08 µM (inactive) | – | 2.98 µM (inactive) | 1.45 µM (inactive) | 3.08 µM (inactive) | 1.99 µM (inactive) | 3.27 µM (inactive) | – | 4.44 µM (inactive) | 5.25 µM (inactive) | – | 6.14 µM (inactive) | 4.43 µM (inactive) | – | 2.96 µM (inactive)
3 | CCOC(=O)c1nc2ccccc2nc1Oc1ccc(C(=O)OC)cc1 | > 100 µM (inactive) | > 100 µM (inactive) | – | > 100 µM (inactive) | > 100 µM (inactive) | > 100 µM (inactive) | > 100 µM (inactive) | > 100 µM (inactive) | 2.87 µM (inactive) | > 100 µM (inactive) | – | > 100 µM (inactive) | > 100 µM (inactive) | > 100 µM (inactive) | > 100 µM (inactive) | 41.8 µM (inactive) | > 100 µM (inactive) | > 100 µM (inactive) | 29 µM (inactive) | > 100 µM (inactive)
4 | O=C1CN(c2cccc(Cl)c2)C(=O)CN1NCNN1CC(=O)N(c2cccc(Cl)c2)CC1=O | > 100 µM (inactive) | > 100 µM (inactive) | > 100 µM (inactive) | > 100 µM (inactive) | > 100 µM (inactive) | > 100 µM (inactive) | > 100 µM (inactive) | > 100 µM (inactive) | > 100 µM (inactive) | – | > 100 µM (inactive) | > 100 µM (inactive) | > 100 µM (inactive) | > 100 µM (inactive) | > 100 µM (inactive) | > 100 µM (inactive) | > 100 µM (inactive) | > 100 µM (inactive) | 38.3 µM (inactive) | –
5 | Cc1ccc(S(=O)(=O)NC(=O)NC(C(=O)O)C(C)C)cc1 (stereo not drawn) | > 100 µM (inactive) | > 100 µM (inactive) | > 100 µM (inactive) | > 100 µM (inactive) | > 100 µM (inactive) | > 100 µM (inactive) | > 100 µM (inactive) | > 100 µM (inactive) | > 100 µM (inactive) | > 100 µM (inactive) | – | > 100 µM (inactive) | > 100 µM (inactive) | > 100 µM (inactive) | > 100 µM (inactive) | > 100 µM (inactive) | > 100 µM (inactive) | > 100 µM (inactive) | > 100 µM (inactive) | > 100 µM (inactive)
6 | COc1ccc(N2C(=O)CC(c3c[nH]c4ccccc34)C2=O)cc1 (stereo not drawn) | > 100 µM (inactive) | > 100 µM (inactive) | > 100 µM (inactive) | > 100 µM (inactive) | > 100 µM (inactive) | > 100 µM (inactive) | > 100 µM (inactive) | > 100 µM (inactive) | > 100 µM (inactive) | > 100 µM (inactive) | > 100 µM (inactive) | > 100 µM (inactive) | > 100 µM (inactive) | > 100 µM (inactive) | – | > 100 µM (inactive) | > 100 µM (inactive) | > 100 µM (inactive) | – | > 100 µM (inactive)
7 | COc1ccc(OC)c(-c2nc3n(c2/C=C2/C(=O)Nc4ccccc42)CCS3)c1 | 86.5 µM (inactive) | > 100 µM (inactive) | > 100 µM (inactive) | 46.7 µM (inactive) | > 100 µM (inactive) | 47.6 µM (inactive) | 67.5 µM (inactive) | 29.4 µM (inactive) | 27 µM (inactive) | 51.2 µM (inactive) | – | 40.9 µM (inactive) | > 100 µM (inactive) | 41.2 µM (inactive) | 41.5 µM (inactive) | 35 µM (inactive) | 48.4 µM (inactive) | 92.7 µM (inactive) | 22.3 µM (inactive) | 26 µM (inactive)
8 | CC1C(=O)CC[C@@]2(C)C(=O)CCCC12O (stereo partly drawn) | > 100 µM (inactive) | > 100 µM (inactive) | > 100 µM (inactive) | > 100 µM (inactive) | > 100 µM (inactive) | > 100 µM (inactive) | > 100 µM (inactive) | > 100 µM (inactive) | > 100 µM (inactive) | > 100 µM (inactive) | > 100 µM (inactive) | > 100 µM (inactive) | > 100 µM (inactive) | > 100 µM (inactive) | > 100 µM (inactive) | – | > 100 µM (inactive) | > 100 µM (inactive) | – | > 100 µM (inactive)
9 | CCOc1c(OC)cc(C2c3cc4c(c(OCC)c3CC3COC(=O)C32)OCO4)cc1OC (stereo not drawn) | 2.37 µM (inactive) | 3.65 µM (inactive) | 1.82 µM (inactive) | 0.574 µM (active) | 2.62 µM (inactive) | 2.47 µM (inactive) | 7.21 µM (inactive) | 1 µM (active) | 2.65 µM (inactive) | 1.67 µM (inactive) | – | 1.24 µM (inactive) | 16.6 µM (inactive) | 5.87 µM (inactive) | 8.28 µM (inactive) | 2.67 µM (inactive) | 0.365 µM (active) | 11.1 µM (inactive) | 5.11 µM (inactive) | 13.2 µM (inactive)
10 | CC(CO)(CO)/N=C/c1cc(I)cc(I)c1O | 14.2 µM (inactive) | 20.3 µM (inactive) | 21.8 µM (inactive) | 19.5 µM (inactive) | 13.6 µM (inactive) | 21.4 µM (inactive) | 5.62 µM (inactive) | 15.8 µM (inactive) | 11.5 µM (inactive) | 10.3 µM (inactive) | – | 22 µM (inactive) | 16.6 µM (inactive) | 26 µM (inactive) | 8.65 µM (inactive) | 9.98 µM (inactive) | 16 µM (inactive) | 13.1 µM (inactive) | 12.9 µM (inactive) | 12.2 µM (inactive)
11 | CC(=O)OCC1OC(n2c3c(c(-c4cccc5ccccc45)c(C#N)c2=S)CCCC3)C(OC(C)=O)C(OC(C)=O)C1OC(C)=O (stereo not drawn) | 27.7 µM (inactive) | > 100 µM (inactive) | > 100 µM (inactive) | > 100 µM (inactive) | > 100 µM (inactive) | > 100 µM (inactive) | > 100 µM (inactive) | > 100 µM (inactive) | > 100 µM (inactive) | > 100 µM (inactive) | > 100 µM (inactive) | > 100 µM (inactive) | > 100 µM (inactive) | > 100 µM (inactive) | > 100 µM (inactive) | > 100 µM (inactive) | > 100 µM (inactive) | > 100 µM (inactive) | – | 20.7 µM (inactive)
12 | COc1cc(C2c3cc4c(cc3[C@@H](Nc3ccccc3)C3COC[C@H]23)OCO4)cc(OC)c1O (stereo partly drawn) | 3.33 µM (inactive) | 1.69 µM (inactive) | – | 0.512 µM (active) | 1.1 µM (active) | 3.06 µM (inactive) | 3.03 µM (inactive) | 0.485 µM (active) | 0.0665 µM (active) | – | 5.83 µM (inactive) | 1.81 µM (inactive) | 5.77 µM (inactive) | 7.46 µM (inactive) | 16.9 µM (inactive) | 0.235 µM (active) | – | – | 2.23 µM (inactive) | –
13 | COc1cc2c(cc1OCCCN1C(=O)c3cccc4cccc(c34)C1=O)N=C[C@@H]1CCCN1C2=O | 44.8 µM (inactive) | > 92 µM (inactive) | 34 µM (inactive) | 2.47 µM (inactive) | 21 µM (inactive) | 31.3 µM (inactive) | 39.6 µM (inactive) | > 95.1 µM (inactive) | 14 µM (inactive) | 33.9 µM (inactive) | > 63.7 µM (inactive) | 22.6 µM (inactive) | > 65.9 µM (inactive) | 30.3 µM (inactive) | 31.7 µM (inactive) | 5.65 µM (inactive) | > 62.7 µM (inactive) | 19.5 µM (inactive) | – | 65.5 µM (inactive)
14 | COc1ccc(-c2coc3cc(OC)cc(O)c3c2=O)cc1 [4',7-DIMETHOXY-5-HYDROXYGENISTEIN] | > 100 µM (inactive) | 31.4 µM (inactive) | 30.8 µM (inactive) | > 100 µM (inactive) | 25.8 µM (inactive) | > 100 µM (inactive) | 51.3 µM (inactive) | > 100 µM (inactive) | – | > 100 µM (inactive) | > 100 µM (inactive) | > 100 µM (inactive) | > 100 µM (inactive) | 29.6 µM (inactive) | > 100 µM (inactive) | > 100 µM (inactive) | > 100 µM (inactive) | > 100 µM (inactive) | > 100 µM (inactive) | –
15 | COC(=O)[C@@]12OC[C@]34[C@H]([C@@H](O)[C@@H]1O)[C@@]1(C)CC(=O)C(O)=C(C)[C@@H]1C[C@H]3OC(=O)[C@H](OC(=O)/C=C(\C)C(C)C)[C@@H]24 [BRUCEANTIN] | 0.016 µM (active) | 0.02 µM (active) | 0.02 µM (active) | 0.02 µM (active) | 0.0292 µM (active) | 0.02 µM (active) | 0.0205 µM (active) | 0.02 µM (active) | 0.02 µM (active) | 0.02 µM (active) | – | 0.02 µM (active) | 0.02 µM (active) | 0.021 µM (active) | 0.0211 µM (active) | 0.02 µM (active) | 0.02 µM (active) | 0.02 µM (active) | 0.02 µM (active) | 0.0209 µM (active)

Reference: ChEMBL document CHEMBL1201862, “PubChem BioAssay data set” (2004)
